Assay results taken from DBAASP.
Values after ≈ are worked out from the molar mass of the structure shown. Each block holds one compound with its values, some of them ahead of it.

Key:
Experiment in all cases: ≥ marks a high value that may be exact or a test limit, other limits are often not marked, values filed in µg/mL are converted to µM
[1] = system: Bacillus subtilis CMCC 63501
[2] = system: Staphylococcus epidermidis ATCC 12228
[3] = system: Salmonella enterica subsp. enterica serovar Pullorum C79-13
[4] = system: Pseudomonas aeruginosa ATCC 27853
[5] = system: Salmonella typhimurium ATCC 7731
[6] = system: Staphylococcus aureus ATCC 29213
[7] = system: Staphylococcus aureus ATCC 43300
Escherichia coli UB1005 = system: Escherichia coli UB1005
[8] = system: Escherichia coli ATCC 25922
[9] = system: Candida tropicalis ATCC 13803
Candida albicans SC5314 = system: Candida albicans SC5314
[10] = system: Candida parapsilosis ATCC 22019
[11] = system: Candida albicans ATCC 90028
Candida krusei ATCC 6258 = system: Candida krusei ATCC 6258
Bacillus subtilis = system: Bacillus subtilis
Cryptococcus neoformans = system: Cryptococcus neoformans
[12] = system: Cryptococcus neoformans ATCC 34881
Serratia marcescens = system: Serratia marcescens
Staphylococcus aureus = system: Staphylococcus aureus
Candida albicans = system: Candida albicans
Streptococcus pneumoniae = system: Streptococcus pneumoniae
Saccharomyces cerevisiae = system: Saccharomyces cerevisiae
[13] = system: Escherichia coli ATCC 27325
Streptococcus mutans = system: Streptococcus mutans
Pseudomonas putida = system: Pseudomonas putida
[14] = system: Saccharomyces cerevisiae ATCC 44774
[15] = system: Bacillus subtilis ATCC 62037
[16] = system: Salmonella enterica subsp. enterica serovar Enteritidis ATCC 13076
[17] = system: Pseudomonas putida ATCC 17426
Salmonella typhimurium = system: Salmonella typhimurium
[18] = system: Streptococcus mutans ATCC 25175
[19] = system: Staphylococcus aureus ATCC 15752
Escherichia coli = system: Escherichia coli
[20] = system: Candida albicans ATCC 10231
[21] = system: Salmonella enterica subsp. enterica serovar Typhimurium C77-31
Escherichia coli K88 = system: Escherichia coli K88
Escherichia coli K99 = system: Escherichia coli K99
[22] = system: Staphylococcus aureus ATCC 25923
Escherichia coli 078 = system: Escherichia coli 078
[23] = system: Salmonella enterica subsp. enterica serovar Typhimurium ATCC 14028
[24] = system: Enterococcus faecalis ATCC 29212
[25] = system: Pseudomonas aeruginosa PAO1

Structure (SMILES): NCCCC[C@H](NC(=O)[C@@H](N)CS)C(=O)N[C@@H](Cc1ccc(O)cc1)C(=O)N[C@@H](CCCN=C(N)N)C(=O)N[C@@H](Cc1c[nH]c2ccccc12)C(=O)N[C@@H](CCCN=C(N)N)C(=O)O [CKYRWR]
MIC [9]: ≥ 220 µM | MIC (Candida albicans SC5314): ≥ 439 µM | MIC [10]: ≥ 220 µM

Structure (SMILES): CC[C@H](C)[C@H](NC(=O)[C@@H](NC(=O)CN)C(C)C)C(=O)N[C@@H](CCCCN)C(=O)N[C@@H](C)C(=O)N[C@@H](C)C(=O)N[C@@H](CCCCN)C(=O)N[C@@H](CCCCN)C(=O)N[C@H](C(=O)N[C@H](C(=O)N[C@@H](CC(N)=O)C(=O)N[C@H](C(=O)N[C@@H](CC(C)C)C(=O)N[C@@H](CCCCN)C(=O)N[C@@H](CC(N)=O)C(=O)N[C@@H](CC(C)C)C(=O)N[C@@H](Cc1ccccc1)C(N)=O)C(C)C)C(C)C)C(C)C [GVIKAAKKVVNVLKNLF]
MIC (Candida albicans SC5314): ≥ 34.8 µM | MIC [11]: ≥ 69.5 µM | MIC (Candida krusei ATCC 6258): ≥ 34.8 µM | MIC [10]: ≥ 34.8 µM

Structure (SMILES): CC[C@H](C)[C@H](NC(=O)[C@H](CCCN=C(N)N)NC(=O)[C@@H](N)Cc1ccccc1)C(=O)N[C@@H](CCCN=C(N)N)C(=O)N[C@H](C(=O)N[C@@H](CCCN=C(N)N)C(=O)N[C@H](C(N)=O)C(C)C)C(C)C [FRIRVRV]
MIC [25]: 32 µM (≈ 30.2 µg/mL) | MIC [1]: 16 µM (≈ 15.1 µg/mL) | MIC [2]: 32 µM (≈ 30.2 µg/mL) | MIC [4]: 16 µM (≈ 15.1 µg/mL) | MIC [5]: ≥ 32 µM | MIC [23]: 16 µM (≈ 15.1 µg/mL) | MIC [24]: 32 µM (≈ 30.2 µg/mL) | MIC (Escherichia coli UB1005): ≥ 32 µM

Other lines, results leading:

MIC [1]: ≥ 64 µM | MIC [2]: 128 µM (≈ 273 µg/mL) | MIC [3]: 16 µM (≈ 34.1 µg/mL) | MIC [4]: 16 µM (≈ 34.1 µg/mL) | MIC [5]: ≥ 32 µM | MIC [6]: 128 µM (≈ 273 µg/mL) | MIC [7]: 128 µM (≈ 273 µg/mL) | MIC (Escherichia coli UB1005): 8 µM (≈ 17 µg/mL) | MIC [8]: 8 µM (≈ 17 µg/mL)
Structure (SMILES): CC(C)C[C@H](NC(=O)[C@H](CCCCN)NC(=O)[C@H](CCCCN)NC(=O)[C@H](C)NC(=O)[C@@H](NC(=O)[C@H](CCCCN)NC(=O)[C@H](CO)NC(=O)[C@H](CC(C)C)NC(=O)[C@H](Cc1c[nH]c2ccccc12)NC(=O)[C@H](CC(C)C)NC(=O)[C@H](CCCCN)NC(=O)[C@H](CCCCN)NC(=O)[C@H](C)NC(=O)[C@@H](NC(=O)[C@H](CCCCN)NC(=O)[C@H](CO)NC(=O)[C@H](CC(C)C)NC(=O)[C@@H](N)Cc1c[nH]c2ccccc12)[C@@H](C)O)[C@@H](C)O)C(N)=O [WLSKTAKKLWLSKTAKKL]

MIC (Bacillus subtilis): 0.391 µM (≈ 1 µg/mL) | MIC (Cryptococcus neoformans): 0.391 µM (≈ 1 µg/mL) | MIC [12]: 0.781 µM (≈ 2 µg/mL) | MIC (Serratia marcescens): 0.391 µM (≈ 1 µg/mL) | MIC (Staphylococcus aureus): 0.391 µM (≈ 1 µg/mL) | MIC (Candida albicans): 0.781 µM (≈ 2 µg/mL) | MIC (Streptococcus pneumoniae): 0.391 µM (≈ 1 µg/mL) | MIC (Saccharomyces cerevisiae): 1.56 µM (≈ 4 µg/mL) | MIC [13]: 0.391 µM (≈ 1 µg/mL) | MIC (Streptococcus mutans): 0.195 µM (≈ 0.5 µg/mL) | MIC (Pseudomonas putida): 0.781 µM (≈ 2 µg/mL) | MIC [14]: 0.781 µM (≈ 2 µg/mL) | MIC [15]: 0.391 µM (≈ 1 µg/mL) | MIC [16]: 0.781 µM (≈ 2 µg/mL) | MIC [17]: 0.781 µM (≈ 2 µg/mL) | MIC (Salmonella typhimurium): 0.391 µM (≈ 1 µg/mL) | MIC [18]: 0.781 µM (≈ 2 µg/mL) | MIC [19]: 0.781 µM (≈ 2 µg/mL) | MIC (Escherichia coli): 0.391 µM (≈ 1 µg/mL) | MIC [20]: 0.391 µM (≈ 1 µg/mL)
Structure (SMILES): CC(C)C[C@H](NC(=O)CNC(=O)[C@H](C)NC(=O)[C@@H](N)CCCN=C(N)N)C(=O)N[C@@H](CCC(N)=O)C(=O)N[C@@H](Cc1ccccc1)C(=O)N1CCC[C@H]1C(=O)N[C@H](C(=O)NCC(=O)N[C@@H](CCCN=C(N)N)C(=O)N[C@@H](CC(C)C)C(=O)N[C@@H](CC(C)C)C(=O)N[C@@H](CCCN=C(N)N)C(=O)N[C@@H](CCCN=C(N)N)C(=O)N[C@@H](CC(C)C)C(=O)N[C@@H](CC(C)C)C(=O)N[C@@H](CCCN=C(N)N)C(=O)N[C@@H](CCCN=C(N)N)C(=O)N[C@@H](CC(C)C)C(=O)N[C@@H](CC(C)C)C(=O)N[C@@H](CCCN=C(N)N)C(=O)O)C(C)C [RAGLQFPVGRLLRRLLRRLLR]

MIC [21]: 4 µM (≈ 6.74 µg/mL) | MIC [1]: 1 µM (≈ 1.69 µg/mL) | MIC (Escherichia coli K88): 2 µM (≈ 3.37 µg/mL) | MIC [2]: 4 µM (≈ 6.74 µg/mL) | MIC (Escherichia coli K99): 2 µM (≈ 3.37 µg/mL) | MIC [22]: 2 µM (≈ 3.37 µg/mL) | MIC [3]: 1 µM (≈ 1.69 µg/mL) | MIC (Escherichia coli 078): 2 µM (≈ 3.37 µg/mL) | MIC [6]: 4 µM (≈ 6.74 µg/mL) | MIC [23]: 2 µM (≈ 3.37 µg/mL) | MIC [24]: 2 µM (≈ 3.37 µg/mL) | MIC (Escherichia coli UB1005): 1 µM (≈ 1.69 µg/mL) | MIC [8]: 2 µM (≈ 3.37 µg/mL)
Structure (SMILES): CC[C@H](C)[C@H](NC(=O)[C@H](Cc1c[nH]c2ccccc12)NC(=O)[C@H](CCCCN)NC(=O)[C@H](Cc1c[nH]c2ccccc12)NC(=O)[C@@H](NC(=O)[C@H](Cc1c[nH]c2ccccc12)NC(=O)CNC(=O)[C@@H](NC(=O)[C@H](CCCCN)NC(=O)[C@H](CCCCN)NC(=O)[C@H](Cc1c[nH]c2ccccc12)NC(=O)[C@@H](N)CCCN=C(N)N)[C@@H](C)CC)C(C)C)C(N)=O [RWKKIGWVWKWI]

MIC (Bacillus subtilis): 7.78 µM (≈ 16 µg/mL) | MIC (Cryptococcus neoformans): 3.89 µM (≈ 8 µg/mL) | MIC (Serratia marcescens): 15.6 µM (≈ 32 µg/mL) | MIC (Staphylococcus aureus): 7.78 µM (≈ 16 µg/mL) | MIC (Candida albicans): 7.78 µM (≈ 16 µg/mL) | MIC (Streptococcus pneumoniae): 7.78 µM (≈ 16 µg/mL) | MIC (Saccharomyces cerevisiae): 1.94 µM (≈ 4 µg/mL) | MIC (Streptococcus mutans): 15.6 µM (≈ 32 µg/mL) | MIC (Pseudomonas putida): 7.78 µM (≈ 16 µg/mL) | MIC (Salmonella typhimurium): 1.94 µM (≈ 4 µg/mL) | MIC (Escherichia coli): 7.78 µM (≈ 16 µg/mL)
Structure (SMILES): CC(C)C[C@H](NC(=O)CNC(=O)[C@H](CCCCN)NC(=O)[C@@H](N)CCCN=C(N)N)C(=O)N[C@@H](CCC(N)=O)C(=O)N[C@@H](CCCCN)C(=O)N[C@@H](CC(C)C)C(=O)N[C@H](C(=O)NCC(=O)N[C@@H](CCCN=C(N)N)C(=O)N[C@H](C(=O)N[C@@H](Cc1cnc[nH]1)C(=O)N[C@@H](CCCN=C(N)N)C(=O)N[C@@H](CC(C)C)C(=O)N[C@@H](CC(C)C)C(=O)N[C@@H](CCCN=C(N)N)C(=O)N[C@@H](CCCCN)C(=O)O)C(C)C)C(C)C [RKGLQKLVGRVHRLLRK]
